Measured values published in patent publication US20230174642A1, “AFFINITY-MATURATED ANTI-ASIC1a ANTIBODIES” (SHANGHAITECH UNIVERSITY, priority 2019, published 2023).
Each block holds one molecule with its values, some of them ahead of it.

What was measured:
ASIC1a = target: T1, ASIC1a (Homo sapiens, UniProt P78348); experiment: Patch clamp whole-cell recording of acid-induced hASIC1a currents; type: cell-based; details: 30 μM amiloride, positive control; pH 7.4 to pH 6.0; read-out: inhibition of the acid-induced ASIC1a currents
T1 construct: expressed in transfected cells
T1 sequence (P78348 1-528): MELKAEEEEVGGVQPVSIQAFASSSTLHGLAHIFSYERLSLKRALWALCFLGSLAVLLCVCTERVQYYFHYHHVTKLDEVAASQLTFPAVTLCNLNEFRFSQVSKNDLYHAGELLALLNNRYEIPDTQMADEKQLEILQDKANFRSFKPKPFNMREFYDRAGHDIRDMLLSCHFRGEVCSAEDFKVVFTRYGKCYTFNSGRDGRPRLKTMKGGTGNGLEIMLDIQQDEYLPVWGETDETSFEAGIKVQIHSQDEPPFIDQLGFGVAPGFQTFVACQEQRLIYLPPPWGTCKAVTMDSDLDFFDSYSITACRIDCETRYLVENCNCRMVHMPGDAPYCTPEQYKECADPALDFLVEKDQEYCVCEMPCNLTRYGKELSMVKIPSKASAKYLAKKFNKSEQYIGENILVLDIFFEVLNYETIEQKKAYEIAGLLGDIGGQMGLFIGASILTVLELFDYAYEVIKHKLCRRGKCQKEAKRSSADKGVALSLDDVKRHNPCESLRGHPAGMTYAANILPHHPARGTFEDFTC
Method: FIGS. 4A-4E show the effect of affinity-matured ASC06-IgG1 derivative antibodies on the hASIC1a currents. Shown are the representative current traces recorded from single CHO-K1 cells stably expressing hASIC1a in the absence or presence of 100 nM ASC06-IgG1 (FIG. 4A) or affinity-matured ASC06-IgG1 versions ASC06-01-IgG1 (FIG. 4B), ASC06-02-IgG1 (FIG. 4C), ASC06-03-IgG1 (FIG. 4D), or ASC06-04-IgG1 (FIG. 4E). Amiloride (30 μM) was used as a positive control. “Wash” represents the recovery of the current after the treatment of 100 nM indicated antibody followed by 15 min infusion of washing solution.
Whether the affinity-matured ASC06-IgG1 derivative antibodies have an effect on the acid-induced, hASIC1a-mediated electrical current in cells was tested. An hASIC1a overexpressing stable cell line was used as a model for these studies. Extracellular pH was decreased from pH 7.4 to pH 6.0 and the amplitudes of the hASIC1a-mediated inward currents were recorded in the whole-cell recording mode in the presence of the affinity-matured ASC06-IgG1 derivative antibodies (FIGS. 4A-4E). The ASIC1a inhibitor amiloride (30 μM) was used as a positive control for the inhibition of ASIC1a currents.

[1] = target: T2, hASIC1a on CHO-K1 cells stably expressing hASIC1a (human, UniProt P78348 1-528); experiment: cell-based or functional assay
T2 sequence (looked up): T1 sequence (P78348 1-528)

inhibition at 30 µM (ASIC1a): > 50%
Molecule: N=C(N)NC(=O)c1nc(Cl)c(N)nc1N [amiloride, reference compound]

IC50 for the inhibition of ASIC1a currents, FMP assay [1]: 0.031 µM
B1: ASC06-05-IgG1 (antibody, V domains shown)
VH: QVQLQQSGGGLVQPGGSLRLSCAASGFTFSSYAMSWVRQAPGKGLEWVSAISGSGGSTYYADSVKGRFTISRDNSKNTLYLQMNSLRAEDTAVYYCAKDSYFGRAKGSWGQGTLVTVSS
VL: QSALTQPASVSGSPGQSITISCTGTSSDVGAYNYVSWYQQQPGKAPKLMIYGVSNRPSGVSNRFSGSKSGNAASLTISGLQAEDEADYYCSSYTSSSTYVFGTGTKLTVLG
